Measurements published in ChEMBL document CHEMBL1201862, “PubChem BioAssay data set” (2004).
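Tested at 5 concentrations; 48 h exposure; 96-well plates; endpoints linearly interpolated, else capped at highest concentration. GI50: concentration for 50% inhibition of growth.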 Active and inactive are the calls of the source. No stated cut-off is given here; in the data, active = GI50 up to about 1.1 µM and inactive = higher.

How the values were obtained:
Experiment in all cases: DTP human tumour cell line panel, 48 h
A549 = system: A549
ACHN = system: ACHN
CAKI-1 = system: CAKI-1
COLO 205 = system: COLO 205
HCT-15 = system: HCT-15
HOP-62 = system: HOP-62
HT-29 = system: HT-29
Hs-578T = system: Hs-578T
K562 = system: K562
KM12 = system: KM12
OVCAR-8 = system: OVCAR-8
SF-295 = system: SF-295
SK-MEL-5 = system: SK-MEL-5
SNB-19 = system: SNB-19
SNB-75 = system: SNB-75
U-251 = system: U-251
MDA-MB-435 = system: MDA-MB-435
SK-MEL-2 = system: SK-MEL-2
MDA-MB-231 = system: MDA-MB-231

| Structure (SMILES) | GI50 (A549) | GI50 (ACHN) | GI50 (CAKI-1) | GI50 (COLO 205) | GI50 (HCT-15) [µM] | GI50 (HOP-62) | GI50 (HT-29) | GI50 (Hs-578T) | GI50 (K562) | GI50 (KM12) | GI50 (OVCAR-8) | GI50 (SF-295) | GI50 (SK-MEL-5) | GI50 (SNB-19) | GI50 (SNB-75) | GI50 (U-251) | GI50 (MDA-MB-435) | GI50 (SK-MEL-2) | GI50 (MDA-MB-231) |
| --- | --- | --- | --- | --- | --- | --- | --- | --- | --- | --- | --- | --- | --- | --- | --- | --- | --- | --- | --- |
| CN1CCCCC(C#N)(c2ccccc2)CC1 (stereo not drawn) | > 100 µM (inactive) | > 100 µM (inactive) | > 100 µM (inactive) | > 100 µM (inactive) | > 100 | > 100 µM (inactive) | > 100 µM (inactive) | > 100 µM (inactive) | > 100 µM (inactive) | > 100 µM (inactive) | > 100 µM (inactive) | > 100 µM (inactive) | > 100 µM (inactive) | > 100 µM (inactive) | > 100 µM (inactive) | > 100 µM (inactive) |  |  |  |
| CC12CC(c3ccccc3O1)C(C(=O)Nc1ccc(Cl)cc1Cl)C(=O)N2 (stereo not drawn) | 23.2 µM (inactive) | 25 µM (inactive) | 45 µM (inactive) | 64.6 µM (inactive) | 54.2 | 20.1 µM (inactive) | 40.1 µM (inactive) | 25.2 µM (inactive) | 38.3 µM (inactive) | > 100 µM (inactive) | 14.9 µM (inactive) | 48.2 µM (inactive) | > 100 µM (inactive) | 36.7 µM (inactive) |  | 22.2 µM (inactive) | 67.1 µM (inactive) | > 100 µM (inactive) |  |
| CCc1cccc(C)c1NC(=O)CC1C(=O)Nc2ccccc2[S+]1[O-] (stereo not drawn) | 39.1 µM (inactive) | 71.6 µM (inactive) | 53.6 µM (inactive) | 39.2 µM (inactive) | 35.6 | 71.4 µM (inactive) | 33.4 µM (inactive) |  | 24.7 µM (inactive) | 54.2 µM (inactive) | 46 µM (inactive) | 32.1 µM (inactive) |  | 48.4 µM (inactive) | 33.5 µM (inactive) | 18.7 µM (inactive) |  | 43.5 µM (inactive) |  |
| Cn1c(=O)nc2n(-c3ccc(Cl)cc3)c(-c3ccccc3)c(-c3ccccc3)nc-2c1=O | 31.1 µM (inactive) | 19.9 µM (inactive) | 24.8 µM (inactive) | 33 µM (inactive) | 22.5 | 25.3 µM (inactive) | 32.1 µM (inactive) |  | 25.6 µM (inactive) | 23.8 µM (inactive) | 37.5 µM (inactive) | 30.1 µM (inactive) | 20.1 µM (inactive) | 32.1 µM (inactive) | 23.2 µM (inactive) | 27.5 µM (inactive) |  | 23.6 µM (inactive) |  |
| Nc1nc(-[n+]2ccc(-c3ccncc3)cc2)nc(Cl)c1Cl | > 100 µM (inactive) | > 100 µM (inactive) |  | 36.2 µM (inactive) | 49.4 | 43 µM (inactive) | 88.5 µM (inactive) |  | 29.9 µM (inactive) | 43.6 µM (inactive) |  |  | > 100 µM (inactive) | 27 µM (inactive) |  | 35.4 µM (inactive) | > 100 µM (inactive) | 57.4 µM (inactive) | 35.4 µM (inactive) |
| CN1N=C(c2ccccc2)c2cc(Cl)ccc2N=C1N/N=C/c1ccc(N(C)C)cc1 | > 100 µM (inactive) | > 100 µM (inactive) | > 100 µM (inactive) | > 100 µM (inactive) | 87.7 | > 100 µM (inactive) | > 100 µM (inactive) |  | 64.3 µM (inactive) | > 100 µM (inactive) | > 100 µM (inactive) | > 100 µM (inactive) | > 100 µM (inactive) | > 100 µM (inactive) | > 100 µM (inactive) | > 100 µM (inactive) | > 100 µM (inactive) |  | 97.7 µM (inactive) |
| c1cc(-c2ccc(-c3nc4ccc(C5=NCCN5)cc4s3)s2)ccc1C1=NCCN1 | 0.166 µM (active) | 0.562 µM (active) | 1.51 µM (inactive) | 1.11 µM (active) | 2.17 | 0.187 µM (active) | 0.596 µM (active) |  | 0.82 µM (active) | 0.565 µM (active) | 0.296 µM (active) | 0.301 µM (active) | 0.955 µM (active) | 0.618 µM (active) | 0.222 µM (active) | 0.222 µM (active) | 0.841 µM (active) | 1.27 µM (inactive) | 0.234 µM (active) |
